# Columns and labels:
# CDK1/cyclin B (h) = target: T1, CDK1/cyclin B (h) (Homo sapiens, UniProt P06493); assay: Kinase profile, CDK1/cyclin B; assay type: biochemical; conditions: mean ± S.D.
# T1 construct: purchased Millipore (now Eurofins) KinaseProfiler / IC50 Profiler
# Method: (§1) All kinase assays were carried out using KinaseProfiler^TM and IC50 Profiler^TM (Millipore UK Ltd., Dundee, UK. Now Eurofins Scientific, Dundee, UK). All IC50 data were presented as the mean values. The Curves obtained to determine IC50 values were shown in Supporting Information (S1 Fig).
# VEGFR-1 = target: T2, VEGFR-1 (Homo sapiens, UniProt P17948); assay: In vitro kinase assay, VEGFR-1; assay type: biochemical
# T2 construct: purchased Millipore UK Ltd., Dundee, UK (now Eurofins Scientific); KinaseProfiler / IC50 Profiler service
# T2 sequence (P17948 27-1338): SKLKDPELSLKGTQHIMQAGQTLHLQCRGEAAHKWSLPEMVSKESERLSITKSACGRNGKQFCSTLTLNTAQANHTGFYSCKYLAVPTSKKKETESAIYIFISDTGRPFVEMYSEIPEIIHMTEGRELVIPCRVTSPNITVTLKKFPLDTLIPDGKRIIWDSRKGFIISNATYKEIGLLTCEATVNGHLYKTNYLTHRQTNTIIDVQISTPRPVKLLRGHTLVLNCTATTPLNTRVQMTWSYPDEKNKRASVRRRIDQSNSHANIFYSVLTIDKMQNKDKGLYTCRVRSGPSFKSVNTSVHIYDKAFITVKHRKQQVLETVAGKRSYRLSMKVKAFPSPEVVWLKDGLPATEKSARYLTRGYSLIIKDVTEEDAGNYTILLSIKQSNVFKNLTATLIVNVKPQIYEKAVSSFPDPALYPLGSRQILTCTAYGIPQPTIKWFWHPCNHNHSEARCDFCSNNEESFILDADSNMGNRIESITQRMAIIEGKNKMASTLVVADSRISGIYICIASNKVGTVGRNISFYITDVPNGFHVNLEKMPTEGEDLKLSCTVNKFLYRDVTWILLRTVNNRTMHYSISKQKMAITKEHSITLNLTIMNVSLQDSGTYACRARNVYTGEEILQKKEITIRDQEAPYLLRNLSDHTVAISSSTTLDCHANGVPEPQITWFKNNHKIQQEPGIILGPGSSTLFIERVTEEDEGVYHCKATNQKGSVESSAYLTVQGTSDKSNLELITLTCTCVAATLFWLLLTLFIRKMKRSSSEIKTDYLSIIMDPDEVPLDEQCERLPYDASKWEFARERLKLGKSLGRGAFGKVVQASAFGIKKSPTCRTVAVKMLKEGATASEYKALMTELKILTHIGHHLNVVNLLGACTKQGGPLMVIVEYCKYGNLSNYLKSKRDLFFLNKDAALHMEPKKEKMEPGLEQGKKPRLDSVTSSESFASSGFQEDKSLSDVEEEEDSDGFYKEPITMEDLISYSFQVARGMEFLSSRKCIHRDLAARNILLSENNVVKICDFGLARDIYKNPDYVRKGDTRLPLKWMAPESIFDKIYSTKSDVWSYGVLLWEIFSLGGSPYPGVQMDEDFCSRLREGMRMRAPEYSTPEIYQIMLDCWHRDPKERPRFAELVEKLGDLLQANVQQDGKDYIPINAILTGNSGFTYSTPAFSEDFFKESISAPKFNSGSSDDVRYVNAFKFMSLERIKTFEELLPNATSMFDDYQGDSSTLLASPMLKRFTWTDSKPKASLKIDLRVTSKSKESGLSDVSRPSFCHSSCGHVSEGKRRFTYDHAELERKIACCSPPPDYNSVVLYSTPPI
# Method: as §1
# CaMKIIβ (h) = target: T3, CaMKIIβ (h) (Homo sapiens, UniProt Q13554); assay: Kinase profile, CaMKIIβ; assay type: biochemical; conditions: mean ± S.D.
# T3 construct: purchased Millipore (now Eurofins) KinaseProfiler / IC50 Profiler
# Method: as §1
# PKA (h) = target: T4, PKA (h) (Homo sapiens, UniProt P17612); assay: Kinase profile, PKA; assay type: biochemical; conditions: mean ± S.D.
# T4 construct: purchased Millipore (now Eurofins) KinaseProfiler / IC50 Profiler
# Method: as §1
# PKCμ (h) = target: T5, PKCμ (h) (Homo sapiens, UniProt Q15139); assay: Kinase profile, PKCμ; assay type: biochemical; conditions: mean ± S.D.
# T5 construct: purchased Millipore (now Eurofins) KinaseProfiler / IC50 Profiler
# Method: as §1
# CaMKIV (h) = target: T6, CaMKIV (h) (Homo sapiens, UniProt Q16566); assay: Kinase profile, CaMKIV; assay type: biochemical; conditions: mean ± S.D.
# T6 construct: purchased Millipore (now Eurofins) KinaseProfiler / IC50 Profiler
# Method: as §1
# CDK7/cyclin H/MAT1 (h) = target: T7, CDK7/cyclin H/MAT1 (h) (Homo sapiens, UniProt P50613); assay: Kinase profile, CDK7/cyclin H/MAT1; assay type: biochemical; conditions: mean ± S.D.
# T7 construct: purchased Millipore (now Eurofins) KinaseProfiler / IC50 Profiler
# Method: as §1
# CaMKIIγ (h) = target: T8, CaMKIIγ (h) (Homo sapiens, UniProt Q13555); assay: Kinase profile, CaMKIIγ; assay type: biochemical; conditions: mean ± S.D.
# T8 construct: purchased Millipore (now Eurofins) KinaseProfiler / IC50 Profiler
# Method: as §1
# CDK5/p35 (h) = target: T9, CDK5/p35 (h) (Homo sapiens, UniProt Q00535); assay: Kinase profile, CDK5/p35; assay type: biochemical; conditions: mean ± S.D.
# T9 construct: purchased Millipore (now Eurofins) KinaseProfiler / IC50 Profiler
# Method: as §1
# cKit = target: T10, cKit (Homo sapiens, UniProt P10721); assay: In vitro kinase assay, cKit; assay type: biochemical
# T10 construct: purchased Millipore UK Ltd., Dundee, UK (now Eurofins Scientific); KinaseProfiler / IC50 Profiler service
# T10 sequence (P10721 26-976): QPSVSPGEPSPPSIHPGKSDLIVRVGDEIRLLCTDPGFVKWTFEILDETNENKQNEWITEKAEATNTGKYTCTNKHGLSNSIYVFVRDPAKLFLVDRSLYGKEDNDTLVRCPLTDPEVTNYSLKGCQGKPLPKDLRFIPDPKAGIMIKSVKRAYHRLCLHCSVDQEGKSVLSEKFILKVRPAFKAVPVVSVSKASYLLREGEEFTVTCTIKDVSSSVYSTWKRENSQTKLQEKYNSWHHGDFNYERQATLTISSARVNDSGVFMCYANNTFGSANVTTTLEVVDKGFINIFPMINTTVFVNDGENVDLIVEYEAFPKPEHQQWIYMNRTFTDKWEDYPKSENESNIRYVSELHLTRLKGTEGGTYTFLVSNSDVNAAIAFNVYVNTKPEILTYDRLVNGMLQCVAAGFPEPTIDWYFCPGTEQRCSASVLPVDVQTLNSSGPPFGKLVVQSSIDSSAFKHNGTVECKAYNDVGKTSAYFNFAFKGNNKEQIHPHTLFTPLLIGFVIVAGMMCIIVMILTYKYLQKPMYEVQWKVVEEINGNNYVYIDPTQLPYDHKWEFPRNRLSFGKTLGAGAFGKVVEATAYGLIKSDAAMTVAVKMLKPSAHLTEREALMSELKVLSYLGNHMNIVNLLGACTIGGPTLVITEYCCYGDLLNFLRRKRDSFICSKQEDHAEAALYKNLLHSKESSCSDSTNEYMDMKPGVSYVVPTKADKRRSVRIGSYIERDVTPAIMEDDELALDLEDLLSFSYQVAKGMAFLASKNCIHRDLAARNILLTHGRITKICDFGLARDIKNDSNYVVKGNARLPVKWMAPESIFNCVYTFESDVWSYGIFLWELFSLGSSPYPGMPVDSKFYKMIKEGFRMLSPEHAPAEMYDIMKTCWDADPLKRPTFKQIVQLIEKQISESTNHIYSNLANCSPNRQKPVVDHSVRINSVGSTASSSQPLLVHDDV
# Method: as §1
# MAPK2 (h) = target: T11, MAPK2 (h) (Homo sapiens, UniProt P28482); assay: Kinase profile, MAPK2; assay type: biochemical; conditions: mean ± S.D.
# T11 construct: purchased Millipore (now Eurofins) KinaseProfiler / IC50 Profiler
# Method: as §1
# PKCα (h) = target: T12, PKCα (h) (Homo sapiens, UniProt P17252); assay: Kinase profile, PKCα; assay type: biochemical; conditions: mean ± S.D.
# T12 construct: purchased Millipore (now Eurofins) KinaseProfiler / IC50 Profiler
# Method: as §1
# FLT3 (h) = target: T13, FLT3 (h) (Homo sapiens, UniProt P36888); assay: Kinase profile, FLT3; assay type: biochemical; conditions: mean ± S.D.
# T13 construct: purchased Millipore (now Eurofins) KinaseProfiler / IC50 Profiler
# Method: as §1
# CDK2/cyclin E (h) = target: T14, CDK2/cyclin E (h) (Homo sapiens, UniProt P24941); assay: Kinase profile, CDK2/cyclin E; assay type: biochemical; conditions: mean ± S.D.
# T14 construct: purchased Millipore (now Eurofins) KinaseProfiler / IC50 Profiler
# Method: as §1
# PKCδ (h) = target: T15, PKCδ (h) (Homo sapiens, UniProt Q05655); assay: Kinase profile, PKCδ; assay type: biochemical; conditions: mean ± S.D.
# T15 construct: purchased Millipore (now Eurofins) KinaseProfiler / IC50 Profiler
# Method: as §1
# PKCγ (h) = target: T16, PKCγ (h) (Homo sapiens, UniProt P05129); assay: Kinase profile, PKCγ; assay type: biochemical; conditions: mean ± S.D.
# T16 construct: purchased Millipore (now Eurofins) KinaseProfiler / IC50 Profiler
# Method: as §1
# MAPK1 (h) = target: T17, MAPK1 (h) (Homo sapiens, UniProt P27361); assay: Kinase profile, MAPK1; assay type: biochemical; conditions: mean ± S.D.
# T17 construct: purchased Millipore (now Eurofins) KinaseProfiler / IC50 Profiler
# Method: as §1
# phosphorylated EGFR = assay: Western blot of EGFR phosphorylation in HCC827 cells; assay type: cell-based; conditions: 3 h
# Method: Fig 3 MKP101 inhibits proliferation of epidermal growth factor receptor (EGFR)-tyrosine kinase inhibitor (TKI)-sensitive non-small cell lung cancer (NSCLC) cells. (A) Inhibition of HCC827 cell proliferation. Cells were incubated for 72 h with a range of concentrations of MKP101, and cell viability was measured using the WST-1 assay. […] (B) Inhibition of EGFR phosphorylation in HCC827 cells. Western blot analysis using antibodies to phosphorylated and total EGFR from a representative experiment is shown. Cells were incubated for 3 h at the indicated concentration. (C) Graph showing the relative intensities of the total and phosphorylated EGFR as determined by band densitometry. IC50, half-maximal inhibitory concentration.
# Lyn (h) = target: T18, Lyn (h) (Homo sapiens, UniProt P07948); assay: Kinase profile, Lyn; assay type: biochemical; conditions: mean ± S.D.
# T18 construct: purchased Millipore (now Eurofins) KinaseProfiler / IC50 Profiler
# Method: as §1
# PKCη (h) = target: T19, PKCη (h) (Homo sapiens, UniProt P24723); assay: Kinase profile, PKCη; assay type: biochemical; conditions: mean ± S.D.
# T19 construct: purchased Millipore (now Eurofins) KinaseProfiler / IC50 Profiler
# Method: as §1
# CDK3/cyclin E (h) = target: T20, CDK3/cyclin E (h) (Homo sapiens, UniProt Q00526); assay: Kinase profile, CDK3/cyclin E; assay type: biochemical; conditions: mean ± S.D.
# T20 construct: purchased Millipore (now Eurofins) KinaseProfiler / IC50 Profiler
# Method: as §1
# Abl (h) = target: T21, Abl (h) (Homo sapiens, UniProt P00519); assay: Kinase profile, Abl; assay type: biochemical; conditions: mean ± S.D.
# T21 construct: purchased Millipore (now Eurofins) KinaseProfiler / IC50 Profiler
# Method: as §1
# PKBβ (h) = target: T22, PKBβ (h) (Homo sapiens, UniProt P31751); assay: Kinase profile, PKBβ; assay type: biochemical; conditions: mean ± S.D.
# T22 construct: purchased Millipore (now Eurofins) KinaseProfiler / IC50 Profiler
# Method: as §1
# VEGFR-3 = target: T23, VEGFR-3 (Homo sapiens, UniProt P35916); assay: In vitro kinase assay, VEGFR-3; assay type: biochemical
# T23 construct: purchased Millipore UK Ltd., Dundee, UK (now Eurofins Scientific); KinaseProfiler / IC50 Profiler service
# T23 sequence (P35916 25-1363): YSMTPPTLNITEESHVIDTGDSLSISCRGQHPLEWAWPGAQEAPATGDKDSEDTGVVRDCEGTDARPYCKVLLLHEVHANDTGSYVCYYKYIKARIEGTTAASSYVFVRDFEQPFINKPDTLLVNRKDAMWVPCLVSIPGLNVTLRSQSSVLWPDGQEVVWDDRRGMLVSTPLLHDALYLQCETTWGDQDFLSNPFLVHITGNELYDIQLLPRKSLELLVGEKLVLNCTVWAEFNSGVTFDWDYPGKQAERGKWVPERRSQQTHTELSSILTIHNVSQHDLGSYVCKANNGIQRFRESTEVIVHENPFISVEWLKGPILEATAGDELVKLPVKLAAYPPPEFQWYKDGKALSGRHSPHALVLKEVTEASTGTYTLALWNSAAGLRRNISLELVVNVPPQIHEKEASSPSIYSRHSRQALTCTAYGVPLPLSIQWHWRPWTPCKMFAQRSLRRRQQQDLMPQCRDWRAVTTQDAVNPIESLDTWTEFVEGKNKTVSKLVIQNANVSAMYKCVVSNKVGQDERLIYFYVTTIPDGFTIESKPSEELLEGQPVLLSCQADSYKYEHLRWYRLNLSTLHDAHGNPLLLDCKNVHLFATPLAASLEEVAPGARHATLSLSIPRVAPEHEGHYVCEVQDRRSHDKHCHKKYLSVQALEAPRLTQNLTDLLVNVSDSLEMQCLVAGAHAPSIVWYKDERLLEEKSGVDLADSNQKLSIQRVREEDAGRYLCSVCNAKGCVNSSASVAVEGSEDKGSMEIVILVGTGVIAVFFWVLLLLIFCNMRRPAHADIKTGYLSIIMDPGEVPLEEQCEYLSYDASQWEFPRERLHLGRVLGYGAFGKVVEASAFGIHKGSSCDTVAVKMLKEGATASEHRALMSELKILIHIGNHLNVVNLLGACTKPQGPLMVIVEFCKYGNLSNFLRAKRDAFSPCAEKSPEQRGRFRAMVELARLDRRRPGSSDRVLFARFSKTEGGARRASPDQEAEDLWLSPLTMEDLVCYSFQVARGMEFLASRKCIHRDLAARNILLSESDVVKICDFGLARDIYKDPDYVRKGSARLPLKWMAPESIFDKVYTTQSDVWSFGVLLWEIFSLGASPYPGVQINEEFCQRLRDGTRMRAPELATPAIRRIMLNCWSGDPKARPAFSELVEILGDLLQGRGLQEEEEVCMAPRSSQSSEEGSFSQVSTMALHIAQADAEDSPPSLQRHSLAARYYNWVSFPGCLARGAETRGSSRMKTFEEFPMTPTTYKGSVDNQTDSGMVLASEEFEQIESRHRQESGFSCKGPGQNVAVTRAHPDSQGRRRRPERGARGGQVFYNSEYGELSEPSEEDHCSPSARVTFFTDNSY
# Method: as §1
# PKCι (h) = target: T24, PKCι (h) (Homo sapiens, UniProt P41743); assay: Kinase profile, PKCι; assay type: biochemical; conditions: mean ± S.D.
# T24 construct: purchased Millipore (now Eurofins) KinaseProfiler / IC50 Profiler
# Method: as §1
# CDK2/cyclin A (h) = target: T25, CDK2/cyclin A (h) (Homo sapiens, UniProt P24941); assay: Kinase profile, CDK2/cyclin A; assay type: biochemical; conditions: mean ± S.D.
# T25 construct: purchased Millipore (now Eurofins) KinaseProfiler / IC50 Profiler
# Method: as §1
# FGFR3 = target: T26, FGFR3 (Homo sapiens, UniProt P22607); assay: In vitro kinase assay, FGFR3; assay type: biochemical
# T26 construct: purchased Millipore UK Ltd., Dundee, UK (now Eurofins Scientific); KinaseProfiler / IC50 Profiler service
# T26 sequence (P22607 23-806): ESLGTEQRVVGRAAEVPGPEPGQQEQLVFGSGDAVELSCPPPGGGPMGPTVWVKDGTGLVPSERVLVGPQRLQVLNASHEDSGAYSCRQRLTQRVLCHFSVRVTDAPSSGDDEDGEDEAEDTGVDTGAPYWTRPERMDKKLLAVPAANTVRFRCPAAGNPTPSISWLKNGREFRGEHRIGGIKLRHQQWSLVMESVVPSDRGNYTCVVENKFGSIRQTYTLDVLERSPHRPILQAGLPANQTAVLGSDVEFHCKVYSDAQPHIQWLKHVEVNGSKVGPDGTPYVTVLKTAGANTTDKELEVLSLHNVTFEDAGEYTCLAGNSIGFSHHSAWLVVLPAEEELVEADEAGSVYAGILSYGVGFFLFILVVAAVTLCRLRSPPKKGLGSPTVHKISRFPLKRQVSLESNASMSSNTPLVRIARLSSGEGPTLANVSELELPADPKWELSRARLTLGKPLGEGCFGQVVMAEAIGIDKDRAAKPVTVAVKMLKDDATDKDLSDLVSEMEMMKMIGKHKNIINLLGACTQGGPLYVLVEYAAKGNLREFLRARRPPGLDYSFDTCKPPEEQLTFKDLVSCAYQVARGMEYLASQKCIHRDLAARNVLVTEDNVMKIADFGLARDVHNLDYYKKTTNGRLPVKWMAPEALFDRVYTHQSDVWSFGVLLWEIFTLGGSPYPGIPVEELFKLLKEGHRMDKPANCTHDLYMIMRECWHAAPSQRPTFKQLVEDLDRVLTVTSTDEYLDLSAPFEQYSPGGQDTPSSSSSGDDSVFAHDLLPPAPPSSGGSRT
# Method: as §1
# HCC827 cells = assay: HCC827 cell viability assay; assay type: cell-based; conditions: Homo sapiens, 72 h, read-out: HCC827 IC50 (anti-proliferative activity)
# Method: HCC827 cells were purchased from the American Type Culture Collection (ATCC, Manassas, VA, USA). […] Human umbilical vein endothelial cells (HUVECs, ScienCell Research Laboratories, Carlsbad, CA, USA) were cultured in endothelial growth medium-2 (EGM-2; Lonza, Walkersville, MD, USA) from passages 3 to 6.
# After a 24-hour incubation, the cells were treated with a series of test compound dilutions for 72 hours. Cell viability was assessed using EZ-Cytox (Daeil Lab Service, Seoul, South Korea) according to the manufacturer’s instructions.
# Cells were incubated for 72 h with a range of concentrations of MKP101, and cell viability was measured using the WST-1 assay. […] Western blot analysis using antibodies to phosphorylated and total EGFR from a representative experiment is shown. Cells were incubated for 3 h at the indicated concentration. (C) Graph showing the relative intensities of the total and phosphorylated EGFR as determined by band densitometry. IC50, half-maximal inhibitory concentration.
compound,measurement,setting,value
Cc1ccc(Nc2nccc(N(C)c3ccc4[nH]ccc4c3)n2)cc1S(N)(=O)=O [MKP101],inhibition at 1 µM,CDK1/cyclin B (h),18 ± 8%
same,inhibition at 1 µM,"VEGFR-1; 1 μM, mean ± S.D., read-out: % inhibition at 1 μM, VEGFR-1 (h)",99%
same,IC50,VEGFR-1; in vitro kinase assay,3 nM
same,inhibition at 1 µM,CaMKIIβ (h),17 ± 4%
same,inhibition at 1 µM,PKA (h),7 ± 6%
same,inhibition at 1 µM,PKCμ (h),7 ± 1%
same,inhibition at 1 µM,CaMKIV (h),0%
same,inhibition at 1 µM,CDK7/cyclin H/MAT1 (h),16 ± 5%
same,inhibition at 1 µM,CaMKIIγ (h),37 ± 2%
same,inhibition at 1 µM,CDK5/p35 (h),38 ± 3%
same,inhibition at 1 µM,"cKit; 1 μM, mean ± S.D., read-out: % inhibition at 1 μM, cKit(h)",99%
same,IC50,cKit; in vitro kinase assay,108 nM
same,inhibition at 1 µM,MAPK2 (h),0%
same,inhibition at 1 µM,PKCα (h),10 ± 1%
same,inhibition at 1 µM,FLT3 (h),91 ± 1%
same,inhibition at 1 µM,CDK2/cyclin E (h),8 ± 1%
same,inhibition at 1 µM,PKCδ (h),0%
same,inhibition at 1 µM,PKCγ (h),12 ± 2%
same,inhibition at 1 µM,MAPK1 (h),4 ± 5%
same,Inhibition of EGFR phosphorylation,phosphorylated EGFR,reduced the levels of phosphorylated EGFR
same,inhibition at 1 µM,Lyn (h),98 ± 1%
same,inhibition at 1 µM,PKCη (h),0%
same,inhibition at 1 µM,CDK3/cyclin E (h),6 ± 2%
same,inhibition at 1 µM,Abl (h),100 ± 2%
same,inhibition at 1 µM,PKBβ (h),14 ± 4%
same,inhibition at 1 µM,"VEGFR-3; 1 μM, mean ± S.D., read-out: % inhibition at 1 μM, VEGFR-3 (h)",98%
same,IC50,VEGFR-3; in vitro kinase assay,2 nM
same,inhibition at 1 µM,PKCι (h),5 ± 6%
same,inhibition at 1 µM,CDK2/cyclin A (h),12 ± 8%
same,inhibition at 1 µM,"FGFR3; 1 μM, mean ± S.D., read-out: % inhibition at 1 μM, FGFR3 (h)",96%
same,IC50,FGFR3; in vitro kinase assay,43 nM
same,IC50,HCC827 cells,160 nM
